Here are results for 24 molecules from patent US11958831B2, “Pyrazole compounds, pharmaceutical compositions thereof and use thereof” (ARTIVILA (SHENZHEN) INNOVATION CENTER, LTD., priority 2018, dated 2024).

Structures are written as SMILES.

The target in this assay is IRAK4 kinase (Homo sapiens (Human), UniProt Q9NWZ3). The experiment in a line: IRAK4 kinase activity assay (mobility shift, Km ATP). It counts as biochemical. To be noted: Km ATP (15.6 μM ATP), 1 nM IRAK4, 60 min room temperature. How it is done: Inhibitory activity (IC50) of the compounds against IRAK4 kinase under Km ATP was detected through mobility spectrum analysis (MSA). IRAK4 kinase was purchased from Carna (Cat. No.: 09-145, batch No.: 14CBS-0020H), and Kinase Substrate 8 was purchased from GL Biochem (Cat. No.: 112396, batch No.: P171207-MJI112396).
Chain of IRAK4 kinase (Q9NWZ3 whole entry): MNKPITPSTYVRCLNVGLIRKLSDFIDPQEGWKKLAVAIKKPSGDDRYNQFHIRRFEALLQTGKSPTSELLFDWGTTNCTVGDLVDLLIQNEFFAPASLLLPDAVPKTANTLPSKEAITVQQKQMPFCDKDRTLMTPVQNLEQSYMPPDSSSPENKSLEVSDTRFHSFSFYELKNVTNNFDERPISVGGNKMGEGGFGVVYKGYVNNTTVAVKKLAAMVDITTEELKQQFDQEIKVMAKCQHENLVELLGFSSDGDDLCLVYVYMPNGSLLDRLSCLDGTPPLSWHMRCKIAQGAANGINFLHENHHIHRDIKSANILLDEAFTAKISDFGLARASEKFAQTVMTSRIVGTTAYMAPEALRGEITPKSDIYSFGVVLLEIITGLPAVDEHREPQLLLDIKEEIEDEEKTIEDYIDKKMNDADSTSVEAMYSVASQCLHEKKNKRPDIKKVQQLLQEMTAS
The compounds were prepared with DMSO to 100 times the final reaction concentration and diluted to 10 concentrations in sequence at a 3-fold dilution ratio starting from 1 μM. Then 0.25 μL was transferred to a 384-well plate using Echo550. A 1× kinase buffer (50 mM HEPES, pH=7.5, 0.0015% Brij-35, 10 mM MgCl2, 2 mM DTT) was used to prepare a kinase solution of 2.5 times the final concentration. Then 10 μL of the kinase solution of 2.5 times the final concentration was added to each compound well, shaken and mixed uniformly, and incubated at room temperature for 10 min. A 1× kinase buffer was used to prepare a mixed solution of ATP and substrate Kinase Substrate 8 with a concentration of 25/15 times the final concentration. 15 μL of the mixed solution of ATP and the substrate with a concentration of 25/15 times the final concentration were added to each well (the final concentration of IRAK4 kinase was 1 nM, the final concentration of the substrate was 3 μM, and the final concentration of ATP was 15.6 μM), shaken and mixed uniformly, and reacted at room temperature for 60 min. Finally, 30 μL of stopping solution (100 mM HEPES, pH=7.5, 0.0015% Brij-35, 0.2% Coating Reagent #3, 50 mM EDTA) was added to terminate the reaction. CaliperEZ Reader II was used to read data about conversion rates that was then converted into data about inhibition rates. According to the data about the inhibition rate at each concentration, the half maximal inhibitory concentration (IC50) (Table 1) was calculated by a Logit method.
By IC50 is commonly meant the point on the concentration scale where inhibition reaches its midpoint. For `CC(=O)N1CCC(N2CC(n3cc(NC(=O)c4cccc(-c5cnn(C(C)C)c5)n4)c(C(F)F)n3)C2)CC1` [Example 8, N-(1-(1-(1-acetylpiperidin-4-yl)azetidin-3-yl)-3-(difluoromethyl)-1H-pyrazol-4-yl)-6-(1-isopropyl-1H-pyrazol-4-yl)-2-picolinamide], the IC50 stood at 1.9 nM.
For the molecule `CCC(=O)N1CCC(N2CC(n3cc(NC(=O)c4cccc(-c5cc[nH]n5)n4)c(C(F)F)n3)C2)CC1` [Example 26, N-(3-(difluoromethyl)-1-(1-(1-propionylpiperidin-4-yl)azetidin-3-yl)-1H-pyrazol-4-yl)-6-(1H-pyrazol-3-yl)-2-picolinamide], the half-maximal inhibitory concentration (IC50) is 0.54 nM.
Take `CC(=O)N1CCC(N2CC(n3cc(NC(=O)c4cccc(-c5cnn(C6(CN)CCC6)c5)n4)c(C(F)F)n3)C2)CC1` [Example 11, N-(1-(1-(1-acetylpiperidin-4-yl)azetidin-3-yl)-3-(difluoromethyl)-1H-pyrazol-4-yl)-6-(1-(1-(aminomethyl)cyclobutyl)-1H-pyrazol-4-yl)-2-picolinamide]: the IC50 was 1.6 nM.
As for `C=CC(=O)N1CCC(N2CC(n3cc(NC(=O)c4cccc(-c5cc[nH]n5)n4)c(C(F)F)n3)C2)CC1` [Example 23, N-(1-(1-(1-acryloylpiperidin-4-yl)azetidin-3-yl)-3-(difluoromethyl)-1H-pyrazol-4-yl)-6-(1H-pyrazol-3-yl)-2-picolinamide], the figure is 0.63 nM; as for `CC(=O)N1CCC(N2CC(n3cc(NC(=O)c4cccc(-c5cnn(C6(C#N)CCC6)c5)n4)c(C(F)F)n3)C2)CC1` [Example 10, N-(1-(1-(1-acetylpiperidin-4-yl)azetidin-3-yl)-3-(difluoromethyl)-1H-pyrazol-4-yl)-6-(1-(1-cyanocyclobutyl)-1H-pyrazol-4-yl)-2-picolinamide], 2 nM; as for `C=CC(=O)N1CCC(N2CC(n3cc(NC(=O)c4cccc(-c5cn[nH]c5)n4)c(C(F)F)n3)C2)CC1` [Example 22, N-(1-(1-(1-acryloylpiperidin-4-yl)azetidin-3-yl)-3-(difluoromethyl)-1H-pyrazol-4-yl)-6-(1H-pyrazol-4-yl)-2-picolinamide], 2.5 nM.
As to `CCn1cc(-c2cccc(C(=O)Nc3cn(C4CN(C5CCN(C(C)=O)CC5)C4)nc3C(F)F)n2)cn1` [Example 7, N-(1-(1-(1-acetylpiperidin-4-yl)azetidin-3-yl)-3-(difluoromethyl)-1H-pyrazol-4-yl)-6-(1-ethyl-1H-pyrazol-4-yl)-2-picolinamide], the IC50 worked out at 3.3 nM.
Consider `CN(C)C(=O)N1CCC(N2CC(n3cc(NC(=O)c4cccc(-c5cnn(C(C)(C)CN)c5)n4)c(C(F)F)n3)C2)CC1` [Example 17, 6-(1-(1-Amino-2-methylpropan-2-yl)-1H-pyrazol-4-yl)-N-(3-(difluoromethyl)-1-(1-(1-(dimethylcarbamoyl)piperidin-4-yl)azetidin-3-yl)-1H-pyrazol-4-yl)-2-picolinamide], for which the IC50 was 0.57 nM.
Take `C[C@H](O)C(=O)N1CCC(N2CC(n3cc(NC(=O)c4cccc(-c5cnn(CC(F)(F)F)c5)n4)c(C(F)F)n3)C2)CC1` [Example 30, (S)—N-(3-(difluoromethyl)-1-(1-(1-(2-hydroxypropionyl)piperidin-4-yl)azetidin-3-yl)-1H-pyrazol-4-yl)-6-(1-(2,2,2-trifluoroethyl)-1H-pyrazol-4-yl)-2-picolinamide]: the IC50 amounted to 3.3 nM.
On to `CC(=O)N1CCC(N2CC(n3cc(NC(=O)c4cccc(-c5cnn(C6(C#N)CC6)c5)n4)c(C(F)F)n3)C2)CC1` [Example 9, N-(1-(1-(1-acetylpiperidin-4-yl)azetidin-3-yl)-3-(difluoromethyl)-1H-pyrazol-4-yl)-6-(1-(1-cyanocyclopropyl)-1H-pyrazol-4-yl)-2-picolinamide], for which the concentration for half-maximal inhibition (IC50) worked out at 2.5 nM.
Turning to `CC(=O)N1CCC(N2CC(n3cc(NC(=O)c4cccc(-c5cnn(C)c5)n4)c(C(F)F)n3)C2)CC1` [Example 6, N-(1-(1-(1-acetylpiperidin-4-yl)azetidin-3-yl)-3-(difluoromethyl)-1H-pyrazol-4-yl)-6-(1-methyl-1H-pyrazol-4-yl)-2-picolinamide], the concentration for half-maximal inhibition (IC50) was found to be 4.2 nM.
In the case of `CN(C)C(=O)N1CCC(N2CC(n3cc(NC(=O)c4cccc(-c5cnn(CC(F)F)c5)n4)c(C(F)F)n3)C2)CC1` [Example 38, 6-(1-(2,2-Difluoroethyl)-1H-pyrazol-4-yl)-N-(3-(difluoromethyl)-1-(1-(1-(dimethylcarbamoyl)piperidin-4-yl)azetidin-3-yl)-1H-pyrazol-4-yl)-2-picolinamide], the IC50 stood at 1.5 nM.
The figure for `CS(=O)(=O)N1CCC(N2CC(n3cc(NC(=O)c4cccc(-c5cc[nH]n5)n4)c(C(F)F)n3)C2)CC1` [Example 42, N-(3-(difluoromethyl)-1-(1-(1-(methylsulfonyl)piperidin-4-yl)azetidin-3-yl)-1H-pyrazol-4-yl)-6-(1H-pyrazol-3-yl)-2-picolinamide] is 1.2 nM; for `CN(C)C(=O)N1CCC(N2CC(n3cc(NC(=O)c4cccc(-c5cc[nH]n5)n4)c(C(F)F)n3)C2)CC1` [Example 28, N-(3-(difluoromethyl)-1-(1-(1-(dimethylcarbamoyl)piperidin-4-yl)azetidin-3-yl)-1H-pyrazol-4-yl)-6-(1H-pyrazol-3-yl)-2-picolinamide] it is 0.68 nM; for `CN(C)C(=O)N1CCC(N2CC(n3cc(NC(=O)c4cccc(-c5cn[nH]c5)n4)c(C(F)F)n3)C2)CC1` [Example 20, N-(3-(difluoromethyl)-1-(1-(1-(dimethylcarbamoyl)piperidin-4-yl)azetidin-3-yl)-1H-pyrazol-4-yl)-6-(1H-pyrazol-4-yl)-2-picolinamide] it is 3.2 nM.
For `COC(=O)N1CCC(N2CC(n3cc(NC(=O)c4cccc(-c5cn[nH]c5)n4)c(C(F)F)n3)C2)CC1` [Example 21, Methyl 4-(3-(4-(6-(1H-pyrazol-4-yl)-2-picolinamide)-3-(difluoromethyl)-1H-pyrazol-1-yl)azetidin-1-yl)piperidine-1-carboxylate], the IC50 was 1.7 nM.
`C[C@H](O)C(=O)N1CCC(N2CC(n3cc(NC(=O)c4cccc(-c5cc[nH]n5)n4)c(C(F)F)n3)C2)CC1` [Example 39, (S)—N-(3-(difluoromethyl)-1-(1-(1-(2-hydroxypropionyl)piperidin-4-yl)azetidin-3-yl)-1H-pyrazol-4-yl)-6-(1H-pyrazol-3-yl)-2-picolinamide]: the IC50 was 0.69 nM.
Turning to `CS(=O)(=O)N1CCC(N2CC(n3cc(NC(=O)c4cccc(-c5cnn(CC(F)(F)F)c5)n4)c(C(F)F)n3)C2)CC1` [Example 33, N-(3-(difluoromethyl)-1-(1-(1-(methylsulfonyl)piperidin-4-yl)azetidin-3-yl)-1H-pyrazol-4-yl)-6-(1-(2,2,2-trifluoroethyl)-1H-pyrazol-4-yl)-2-picolinamide], the IC50 stood at 4.9 nM.
Turning to `CC(=O)N1CCC(N2CC(n3cc(NC(=O)c4cccc(-c5cnn(C6(CO)CCC6)c5)n4)c(C(F)F)n3)C2)CC1` [Example 14, N-(1-(1-(1-acetylpiperidin-4-yl)azetidin-3-yl)-3-(difluoromethyl)-1H-pyrazol-4-yl)-6-(1-(1-(hydroxymethyl)cyclobutyl)-1H-pyrazol-4-yl)-2-picolinamide], the half-inhibitory concentration (IC50) is 3.2 nM.
As for `CS(=O)(=O)N1CCC(N2CC(n3cc(NC(=O)c4cccc(-c5cnn(CC(F)F)c5)n4)c(C(F)F)n3)C2)CC1` [Example 37, 6-(1-(2,2-Difluoroethyl)-1H-pyrazol-4-yl)-N-(3-(difluoromethyl)-1-(1-(1-(methylsulfonyl)piperidin-4-yl)azetidin-3-yl)-1H-pyrazol-4-yl)-2-picolinamide], the figure is 5.8 nM; as for `COC(=O)N1CCC(N2CC(n3cc(NC(=O)c4cccc(-c5cc[nH]n5)n4)c(C(F)F)n3)C2)CC1` [Example 25, Methyl 4-(3-(4-(6-(1H-pyrazol-3-yl)-2-picolinamide)-3-(difluoromethyl)-1H-pyrazol-1-yl)azetidin-1-yl)piperidine-1-carboxylate], 0.65 nM; as for `CC(C)C(=O)N1CCC(N2CC(n3cc(NC(=O)c4cccc(-c5cc[nH]n5)n4)c(C(F)F)n3)C2)CC1` [Example 29, N-(3-(difluoromethyl)-1-(1-(1-isobutyrylpiperidin-4-yl)azetidin-3-yl)-1H-pyrazol-4-yl)-6-(1H-pyrazol-3-yl)-2-picolinamide], 0.81 nM.
`CC(=O)N1CCC(N2CC(n3cc(NC(=O)c4cccc(-c5cn[nH]c5)n4)c(C(F)F)n3)C2)CC1` [Example 19, N-(1-(1-(1-acetylpiperidin-4-yl)azetidin-3-yl)-3-(difluoromethyl)-1H-pyrazol-4-yl)-6-(1H-pyrazol-4-yl)-2-picolinamide]: the IC50 was 1.9 nM.
The figure for `CC(=O)N1CCC(N2CC(n3cc(NC(=O)c4cccc(-c5cnn(C(C)(C)CO)c5)n4)c(C(F)F)n3)C2)CC1` [Example 16, N-(1-(1-(1-acetylpiperidin-4-yl)azetidin-3-yl)-3-(difluoromethyl)-1H-pyrazol-4-yl)-6-(1-(1-hydroxy-2-methylpropyl-2-yl)-1H-pyrazol-4-yl)-2-picolinamide] is 1.8 nM.
